From US5637697A, “1,5-benzodiazepine derivatives and their use in medicine” (Glaxo SpA, priority 1992, dated 1997) come the findings set out here.

For data set [1], the target named is T1, CCK-B receptor (Cavia porcellus, UniProt H0VZC5).
T1 construct: CCK-B receptor (guinea pig cortex assay); from tissue; host or cells: guinea pig cortex
Nature of the data set: CCK-B receptor binding (guinea pig cortex assay). To be noted: read-out: pKi CCK-B (converted). How it is done:
The greater affinity of the compounds of the invention for the CCK-B receptor over the CCK-A receptor has also been established using the CCK, receptor binding assays described by G Dal Fornos et al., J. Pharmcol. Exp & Ther. 261, 1056-1063, 1992.
The binding affinity of the compounds of the invention for the CCK-A receptor (Pancreas Assay) and CCK-B receptor (guinea pig cortex assay) was determined using the procedure of G Dal Forno et al J. Pharmacol. Exp & Ther. 261 - 1056-1063. The pKi values determined with respresentative compounds of invention were as follows: […]

Data set [2] relates to mice and rats. Nature of the data set: oral tolerability / untoward effects in mice and rats. In kind it is in vivo. To be noted: given orally to mice and rats at doses at which the compound exhibits anxiolytic activity. The text has this:
(§1) The compounds of the invention are essentially non-toxic and therapeutically useful doses.

The test system of data set [3] is mice and rats. The data set is described as follows: anxiolytic activity, oral, mice and rats. To be noted: given orally to mice and rats. It is filed as in vivo.
Excerpt: For example in mice in the black-white box test and in the rat social interaction model.
as §1

T1 sequence (H0VZC5 entry or part of it): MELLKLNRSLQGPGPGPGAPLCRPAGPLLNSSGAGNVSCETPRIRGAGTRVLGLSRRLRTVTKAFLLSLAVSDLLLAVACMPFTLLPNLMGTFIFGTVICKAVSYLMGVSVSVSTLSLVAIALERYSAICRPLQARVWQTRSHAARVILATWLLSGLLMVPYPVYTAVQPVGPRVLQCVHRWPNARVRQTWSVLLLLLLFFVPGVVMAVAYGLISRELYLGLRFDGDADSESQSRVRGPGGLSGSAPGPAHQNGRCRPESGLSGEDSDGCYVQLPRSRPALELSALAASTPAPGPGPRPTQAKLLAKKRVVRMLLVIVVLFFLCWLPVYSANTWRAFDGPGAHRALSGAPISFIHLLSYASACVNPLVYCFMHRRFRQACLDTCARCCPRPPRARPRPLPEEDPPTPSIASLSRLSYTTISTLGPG

Consider `O=C(Nc1ccccc1)NC1C(=O)N(CC2CC3C=CC2C3)c2ccccc2N(c2ccccc2)C1=O` (stereo not drawn) [Example 31, N-[1-(Bicyclo[2.2.1]-5-heptene-2-ylmethyl)-2,4-dioxo-5-phenyl-2,3,4,5-tetrahydro-1H-1,5-benzodiazepin-3-yl]-N'-phenylurea], for which the Ki in data set [1] is 1.2 nM.

`O=C(Nc1ccccc1)NC1C(=O)N(CC23CC4CC(CC(C4)C2)C3)c2ccccc2N(c2ccccc2)C1=O` (single isomer, unassigned; (+)) [Example 45, (+)-N-[1-(Adamantanmethyl)-2,4-dioxo-5-phenyl-2,3,4,5-tetrahydro-1H-1,5-benzodiazepin-3-yl]-N'-phenylurea]: the untoward effects result in data set [2] is listed as “no untoward effects were obserbved”. The anxiolytic activity entry in data set [3] is given as “exhibits anxiolytic activity”.
